Type in all cases: in vivo
One assay deals with growth hormone (GH). Briefly: Arginine-stimulated hormone release in Nembutal-anesthetized rats, growth hormone by radioimmunoassay. The settings on record: albino male rats, 1,000 μg/kg subcutaneous, blood 15 min after dose (5 min after arginine); control 454 ± 106. The method, then:
(§1) Albino male rate are administered Nembutal intraperitoneally at a dose of 50 milligrams per kilogram. Fifteen minutes later a subcutaneous injection of the test compound or physiological saline (control) is administered. Ten minutes later 0.5 milliliters of arginine (300 milligrams per milliliter, pH 7.2) is injected into the heart. Five minutes after receipt of the arginine the rats are decapitated and blood is collected into trasylol-EDTA. An appropriate aliquot is assayed for growth hormone (GH), insulin, and glucagon by radioimmunoassay.

For the next assay, the system named is insulin. Briefly: Arginine-stimulated hormone release in Nembutal-anesthetized rats, insulin by radioimmunoassay. The settings on record: albino male rats, 1,000 μg/kg subcutaneous, blood 15 min after dose (5 min after arginine); control 269 ± 37. The method, then: as §1
The subject of a further assay is glucagon. In words: Arginine-stimulated hormone release in Nembutal-anesthetized rats, glucagon by radioimmunoassay. As for the experimental part:
as §1

Where a SMILES comes first, the peptide text is derived from it. Bridges are numbered along the chain shown (N, C = ends). [ ]: non-standard residue; d: D form. Abu = CC[C@H](N)C(=O)O

Compound `CC[C@@H]1NC(=O)[C@H](CCCCN)NC(=O)[C@@H](Cc2c[nH]c3ccccc23)NC(=O)[C@H](Cc2ccccc2)NC(=O)[C@H](Cc2ccccc2)NC(=O)[C@H](Cc2c[nH]cn2)NC(=O)[C@@H](N)CSSC[C@@H](C(=O)O)NC(=O)[C@H](Cc2ccccc2)NC1=O` [Example 2, L-Cysteinyl-L-histidyl-L-phenylalanyl-L-phenylalanyl-D-tryptophyl-L-lysyl-L-α-aminobutyryl-L-phenylalanyl-L-cysteine cyclic (1-9) disulfide] (H-CHFF[dW]K[Abu]FC-OH; disulfide 1-9) came in with a GH with growth hormone (GH) of 413 ± 98 ng/mL. Moreover, in the assay with insulin, the INS came to 262 ± 39 μU/ml. Besides, the GLUN with glucagon (albino male rats, 1,000 μg/kg subcutaneous, blood 15 min after dose (5 min after arginine), control 60 ± 10, p<0.05) was 31 ± 5 pg/mL. Moreover, in the assay on glucagon (without materially altering blood serum growth hormone and insulin levels), the “selective inhibition of glucagon release versus growth hormone and insulin levels” value is given as “selectively inhibit glucagon release”.

The values above are taken from patent publication US4185010A, “Nonapeptides” (American Home Products Corporation, priority 1978, dated 1980).
